# In patent publication US4950591A, “Membrane Na^+ channel protein and related therapeutic compounds” (priority 1987, dated 1990):
# Legend:
# [1] = target: T1, Na^+ channel in crude membrane preparation (trachea epithelial) (Bos taurus, UniProt A5D7U4+F1MJW3+P55270); assay: Amiloride inhibition of crude membrane preparation; format: biochemical, bovine
# T1 construct: results for both the purified reconstituted channel protein and for the crude membrane preparation; from tissue; host or cells: trachea epithelial membranes, crude preparation (bovine)
# T1 sequence (P55270 1-650): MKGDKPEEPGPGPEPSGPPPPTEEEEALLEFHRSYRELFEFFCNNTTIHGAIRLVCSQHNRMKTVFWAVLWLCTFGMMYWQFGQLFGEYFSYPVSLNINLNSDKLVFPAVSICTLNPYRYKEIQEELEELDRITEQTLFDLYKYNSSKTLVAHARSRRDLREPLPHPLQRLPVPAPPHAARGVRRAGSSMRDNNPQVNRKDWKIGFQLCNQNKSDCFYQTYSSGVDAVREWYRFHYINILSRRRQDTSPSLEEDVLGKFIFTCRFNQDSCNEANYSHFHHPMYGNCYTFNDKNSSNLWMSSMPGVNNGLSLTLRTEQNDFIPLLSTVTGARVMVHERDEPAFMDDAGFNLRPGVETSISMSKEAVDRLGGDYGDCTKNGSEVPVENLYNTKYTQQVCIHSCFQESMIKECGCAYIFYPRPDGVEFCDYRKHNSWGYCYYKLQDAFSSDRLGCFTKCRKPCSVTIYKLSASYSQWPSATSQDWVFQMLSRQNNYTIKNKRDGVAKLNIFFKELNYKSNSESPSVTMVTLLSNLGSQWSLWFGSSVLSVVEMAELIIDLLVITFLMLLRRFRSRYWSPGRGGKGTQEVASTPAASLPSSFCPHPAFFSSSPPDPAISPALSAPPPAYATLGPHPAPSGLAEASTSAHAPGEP
# T1 sequence (A5D7U4 1-641): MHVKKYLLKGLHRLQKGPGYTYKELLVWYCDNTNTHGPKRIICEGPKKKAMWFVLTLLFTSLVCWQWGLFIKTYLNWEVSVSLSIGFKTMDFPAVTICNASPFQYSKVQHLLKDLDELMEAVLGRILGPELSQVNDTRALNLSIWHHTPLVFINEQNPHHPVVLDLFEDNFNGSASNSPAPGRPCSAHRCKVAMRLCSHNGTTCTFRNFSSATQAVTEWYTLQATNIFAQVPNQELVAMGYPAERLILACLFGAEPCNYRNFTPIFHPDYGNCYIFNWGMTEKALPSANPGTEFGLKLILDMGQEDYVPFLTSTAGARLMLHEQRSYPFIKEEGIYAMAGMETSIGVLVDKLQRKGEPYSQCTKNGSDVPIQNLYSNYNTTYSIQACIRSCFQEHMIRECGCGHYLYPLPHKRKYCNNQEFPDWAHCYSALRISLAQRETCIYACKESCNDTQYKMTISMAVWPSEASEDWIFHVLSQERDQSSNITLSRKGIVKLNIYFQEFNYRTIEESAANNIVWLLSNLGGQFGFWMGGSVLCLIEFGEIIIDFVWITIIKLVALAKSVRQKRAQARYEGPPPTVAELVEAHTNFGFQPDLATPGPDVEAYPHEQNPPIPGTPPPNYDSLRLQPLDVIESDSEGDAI
# T1 sequence (F1MJW3 1-652): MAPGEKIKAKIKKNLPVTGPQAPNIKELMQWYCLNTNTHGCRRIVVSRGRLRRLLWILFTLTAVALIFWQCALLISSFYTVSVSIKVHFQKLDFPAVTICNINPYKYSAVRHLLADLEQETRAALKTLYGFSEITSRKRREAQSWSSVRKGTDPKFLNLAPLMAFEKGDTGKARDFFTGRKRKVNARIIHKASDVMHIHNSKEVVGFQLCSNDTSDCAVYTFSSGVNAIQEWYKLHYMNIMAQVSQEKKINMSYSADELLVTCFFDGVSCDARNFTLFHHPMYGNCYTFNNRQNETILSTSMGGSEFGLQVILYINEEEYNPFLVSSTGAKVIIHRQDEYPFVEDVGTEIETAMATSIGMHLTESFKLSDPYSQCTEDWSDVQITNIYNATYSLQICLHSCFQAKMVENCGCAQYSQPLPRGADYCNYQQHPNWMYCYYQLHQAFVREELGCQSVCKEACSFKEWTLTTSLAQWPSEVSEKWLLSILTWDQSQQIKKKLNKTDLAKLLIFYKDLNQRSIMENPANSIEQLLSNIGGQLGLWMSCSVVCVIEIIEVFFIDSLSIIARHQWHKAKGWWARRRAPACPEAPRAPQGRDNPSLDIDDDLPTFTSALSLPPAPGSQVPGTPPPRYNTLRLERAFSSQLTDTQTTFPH
# [2] = target: T2, purified Na^+ channel protein (Bos taurus, UniProt A5D7U4+F1MJW3+P55270); assay: Amiloride inhibition of purified reconstituted channel; format: biochemical, bovine
# T2 construct: purifying a membrane protein from bovine kidney cortex and bovine trachea epithelia apical membranes; from tissue
# T2 sequence (P55270 1-650): T1 sequence (P55270 1-650)
# T2 sequence (A5D7U4 1-641): T1 sequence (A5D7U4 1-641)
# T2 sequence (F1MJW3 1-652): T1 sequence (F1MJW3 1-652)
# Method: By way of illustrative example, bovine kidney cortex cell membranes or bovine trachea apical cell membranes are collected and pooled until the pooled membranes contain about 100 mg of protein as determined by the Lowry method. The pooled membranes in 100 mM HEPES, pH 7.4, are centrifuged at 40,000 g for 30 minutes. The pelleted material was resuspended in 100 mM HEPES, pH 7.4, containing 3% sodium cholate (4.5-5.5 mg of membrane protein/3 ml of solution) containing in addition bacitracin (100 microgram/g), phenylmethylsulfonyl fluoride (0.5%) and iodoacetamide (1 mM). The mixture is chilled on ice for 60 minutes with occasional agitation, then centrifuged at 40,000 g for 30 minutes. The supernatant, containing the solubilized protein, may be purified immediately or frozen at -70° for later purification.
# The solubilized protein preparation obtained from about 10 g of cell membrane is purified using 100 ml of the affinity gel described in Example 2. The protein solution and gel are stirred overnight in the cold. The gel is washed with 20 volumes of HEPES solution, pH 7.2, by filtration. The adsorbed protein is eluted with 10^-3 M amiloride in dilute saline containing 0.5% cholate by stirring for two hours. The elution was repeated and the combined eluates are dialyzed against 100 mM HEPES/1% sodium cholate for one week in the cold, changing buffers once or twice a day. […]
structure (smiles),measurement,setting,value
"N=C(N)NC(=O)c1nc(Cl)c(N)nc1N [amiloride, 3,5-diamino-N-(aminoiminomethyl)-6-chloropyrazinecarboxamide]",IC50,[1],100 nM
same,IC50,"[2]; Amiloride, IC50 (micromolar), PURIFIED, Table I, trachea epithelial, purified reconstituted channel protein",70 nM
same,IC50,"[2]; IC50 (amiloride sensitivity of purified channel), purified channel",~70 nM
